ChEMBL document CHEMBL2396595, “New eudesmane sesquiterpenes from Alpinia oxyphylla and determination of their inhibitory effects on microglia” (Bioorg Med Chem Lett, 2013)
Activity calls are given as the source filed them. The calls are words filed in the database; no cut-off is given here.

Assays:
[1] = Cytotoxicity against mouse BV2 cells assessed as maximum non-toxic concentration after 24 hrs by MTT assay; type: cell-based, BV-2
BV-2 [2] = test: Neuroprotective activity in mouse BV2 cells assessed as inhibition of LPS-induced nitric oxide production at maximum non-toxic concentration treated 1 hr before LPS addition measured after 24 hrs by colorimetric analysis; type: functional, cell-based
BV-2 [3] = test: Neuroprotective activity in mouse BV2 cells assessed as increase of LPS-induced TNFalpha production at maximum non-toxic concentration treated 1 hr before LPS addition measured after 24 hrs by ELISA; type: functional, cell-based
BV-2 [4] = test: Neuroprotective activity in mouse BV2 cells assessed as increase of LPS-induced nitric oxide production at maximum non-toxic concentration treated 1 hr before LPS addition measured after 24 hrs by colorimetric analysis; type: functional, cell-based
BV-2 [5] = test: Neuroprotective activity in mouse BV2 cells assessed as inhibition of LPS-induced TNFalpha production at maximum non-toxic concentration treated 1 hr before LPS addition measured after 24 hrs by ELISA; type: functional, cell-based

Structure (SMILES) | MNTC at 24 h [1] [µM] | inhibition (BV-2 [2]) | Activity (BV-2 [3]) | Activity (BV-2 [4]) | inhibition (BV-2 [5])
C=C(C)[C@]1(O)CC[C@]2(C)CC(=O)C=C(C)[C@H]2C1 | 0.1 | inactive | Active | – | –
CC(=O)[C@H]1CC[C@@]2(C)CC(=O)C=C(C)[C@@]2(O)C1 | 100 | inactive | – | Active | –
CC(=O)C1=CC2=C(C)C(=O)CC[C@@]2(C)CC1 | 100 | inactive | – | Active | –
CC1=CC(=O)C[C@@]2(C)C[C@H]3OC(=O)C(C)=C3C[C@H]12 | 100 | inactive | – | Active | –
C=C(C)[C@@H]1CC(=O)C2=CC(=O)C[C@@H](C)[C@]2(C)C1 | 0.1 | Active | Active | – | –
Cc1ccc2c(c1O)[C@H](C(C)C)CCC2=O | 100 | Active | – | – | –
Cc1ccc2c(c1)[C@H](C(C)C)CCC2=O [(4S)-10-NOR-CALAMENEN-10-ONE] | 0.1 | inactive | – | Active | –
C[C@@H]1CC(=O)C=C2CC[C@@H]([C@](C)(O)CO)C[C@]21C [(11S)-NOOTKATONE-11,12-DIOL] | 30 | inactive | – | – | –
C=C(C)[C@@H]1CCC2=C[C@@H](O)C[C@@H](C)[C@]2(C)C1 [BETA-NOOTKATOL] | 30 | Active | – | – | –
COc1ccc2c(c1)c(CC(=O)O)c(C)n2C(=O)c1ccc(Cl)cc1 [INDOMETHACIN] | 10 | – | – | – | –
C=C(C)[C@@H]1CCC2=CC(=O)C[C@@H](C)[C@]2(C)C1 [NOOTKATONE] | 0.1 | inactive | Active | – | –
CC1=C2C=C(C(C)(O)CO)CC[C@]2(C)CCC1=O (stereo not given in full) [OXYPHYLLANENE F] | 0.1 | inactive | – | – | –
CC(C)[C@@H]1CCC(=O)C2=C1[C@H](O)[C@](C)(O)CC2 [OXYPHYLLENODIOL A] | 100 | inactive | – | – | –
CC(C)[C@H]1CCC(=O)C2=C1[C@H](O)[C@](C)(O)CC2 [OXYPHYLLENODIOL B] | 1 | Active | – | – | –
C[C@@]12CCC(=O)C=C1[C@@](C)(O)[C@H](O)CC2 [OXYPHYLLENONE A] | 100 | inactive | – | – | Active
C[C@@]12CCC(=O)C=C1[C@](C)(O)[C@H](O)CC2 [OXYPHYLLENONE B] | 10 | inactive | – | – | –
N=C(N)NN [PIMAGEDINE] | 1000 | – | – | – | –
